Measured values taken from patent US20220204560A1, “NOVEL OLIGOPEPTIDE, AND PHARMACEUTICAL COMPOSITION FOR PREVENTING OR TREATING CANCER, COMPRISING THE SAME AS AN ACTIVE INGREDIENT” (L-BASE CO., LTD., priority 2019, published 2022).

Columns and labels:
[1] = system: breast cancer cell line MDA-MB-231; test: Clonogenic assay, colony formation suppression, breast cancer cell line MDA-MB-231; type: cell-based; conditions: MDA-MB-231, 100 μM or 500 μM, 14 days, compared to control group (FIG. 4)
[2] = system: breast cancer cell line HCC70; test: CellTiter-Glo Luminescent (CTG) assay, cell activity suppression, breast cancer cell line HCC70; type: cell-based; conditions: HCC70, 100 μM or 500 μM, 72 hours, compared to control group (FIG. 5)

Sequence	suppression of colony formation (clonogenic assay) [1]	suppression of the activity of cancer cells (amount of ATP, CTG assay) [2]
AQTLTGKT	significant effects on suppression of the colony formation	significant effects on suppression of the colony formation and the activity of cancer cells
AQTITGKT (Oligopeptide #1 AQTITGKT) [oligopeptide of General Formula A-Q-T-X-T-G-K-T, X is isoleucine]	significant effects on suppression of the colony formation	significant effects on suppression of the colony formation and the activity of cancer cells
